From patent US8143426B2, “IAP inhibitors” (TetraLogic Pharmaceuticals Corporation, priority 2006, dated 2012)

molecular target: T1, XIAP BIR3 (Homo sapiens, UniProt P98170); experiment: Fluorescence polarization binding of IAP antagonists to IAP-BIR3 (competition with AbuRPF-K(5-Fam)-NH2); details: Table 1, monomeric IAP antagonists (sugar-modified)
T1 construct: 40 nM of an IAP-BIR3
Protocol: The binding affinity of illustrative compounds of the present invention to an IAP was determined substantially as described by Nikolovska-Coleska, Z. et. al. (Analytical Biochemistry (2004), vol. 332:261-273) using a variety of fluorogenic substrates and is reported as a Kd value. Briefly, various concentrations of IAP antagonists were mixed with 5 nM fluorescently labeled peptide (AbuRPF-K(5-Fam)-NH2) and 40 nM of an IAP-BIR3 for 15 min at RT in […] of 0.1M Potassium Phosphate buffer, pH 7.5 containing […] bovine g-globulin. Following incubation, the polarization values (mP) were measured on a Victor2V using a 485 nm excitation filter and a 520 nm emission filter. IC50 values were determined from the plot using nonlinear least-squares analysis using GraphPad Prism.

T1 sequence (P98170 241-356 limits assumed): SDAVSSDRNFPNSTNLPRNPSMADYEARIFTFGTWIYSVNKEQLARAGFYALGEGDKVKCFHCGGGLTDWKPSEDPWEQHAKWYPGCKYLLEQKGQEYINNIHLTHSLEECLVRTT

Compound | Kd
CN[C@@H](C)C(=O)N[C@H](C(=O)N1CCC[C@H]1Cc1c(-c2ccc(F)cc2)n(C2OC[C@@H](O)[C@H](O)[C@H]2O)c2cc(F)ccc12)C(C)C (some centres unmarked) [B] | < 100 nM
CNC(C)C(=O)NC(C(=O)N1CCCC1Cc1c(-c2ccc(F)cc2)n(C2OCC(O)C(O)C2O)c2cc(F)ccc12)C(C)(C)C (centres unmarked) [Compound A] | < 100 nM
CNC(C)C(=O)NC(C(=O)N1CCCC1Cc1cn(C2OC(C)C(O)C(O)C2O)c2cc(F)ccc12)C(C)(C)C (centres unmarked) [F] | < 100 nM
CNC(C)C(=O)NC(C(=O)N1CCCC1Cc1cn(C2OC(C)C(O)C(O)C2O)c2cc(F)ccc12)C1CCCCC1 (centres unmarked) [G] | < 100 nM
CNC(C)C(=O)NC(C(=O)N1CCCC1Cc1cn(C2OC(C)C(O)C(O)C2O)c2cc(F)ccc12)C(C)C (centres unmarked) [H] | < 100 nM
CN[C@@H](C)C(=O)N[C@H](C(=O)N1CCC[C@H]1Cc1cn(C2OC[C@@H](O)[C@H](O)[C@H]2O)c2cc(F)ccc12)C(C)(C)C (some centres unmarked) [N] | < 100 nM
CN[C@@H](C)C(=O)N[C@H](C(=O)N1CCC[C@H]1Cc1c(-c2ccc(F)cc2)n(C2O[C@@H](C)[C@@H](O)[C@@H](O)[C@@H]2O)c2cc(F)ccc12)[C@@H](C)OC (some centres unmarked) [O] | < 100 nM
CNC(C)C(=O)NC(C(=O)N1CC(O)CC1Cc1c(-c2ccc(F)cc2)n(C2OC(C)C(O)C(O)C2O)c2cc(F)ccc12)C(C)(C)C (centres unmarked) [T] | < 100 nM
CNC(C)C(=O)NC(C(=O)N1CC(O)CC1Cc1c(-c2ccc(F)cc2)n(C2OC(C)C(O)C(O)C2O)c2cc(F)ccc12)C(C)OC (centres unmarked) [U] | < 100 nM

same assay, conditions: Table 2, dimeric IAP antagonists

Compound | Kd
CN[C@@H](C)C(=O)N[C@H](C(=O)N1CCC[C@H]1Cc1c(-c2c(C[C@@H]3CCCN3C(=O)[C@@H](NC(=O)[C@H](C)NC)C(C)C)c3cc(F)ccc3n2C2O[C@H](CO)[C@H](O)[C@H](O)[C@H]2O)[nH]c2ccc(F)cc12)C(C)C (some centres unmarked) [AA] | < 100 nM
CN[C@@H](C)C(=O)N[C@H](C(=O)N1CCC[C@H]1Cc1c(-c2c(C[C@@H]3CCCN3C(=O)[C@@H](NC(=O)[C@H](C)NC)C(C)C)c3cc(F)ccc3n2C2O[C@H](CO)[C@@H](O)[C@H](O)[C@H]2O)[nH]c2ccc(F)cc12)C(C)C (some centres unmarked) [CC] | < 100 nM
CNC(C)C(=O)NC(C(=O)N1CCCC1Cc1c(-c2c(CC3CCCN3C(=O)C(NC(=O)C(C)NC)C(C)C)c3cc(F)ccc3n2C2OC(C)C(O)C(O)C2O)[nH]c2ccc(F)cc12)C(C)C (centres unmarked) [DD] | < 100 nM
CNC(C)C(=O)NC(C(=O)N1CCCC1Cc1c(-c2c(CC3CCCN3C(=O)C(NC(=O)C(C)NC)C(C)OC)c3ccc(F)cc3n2C2OC(C)C(O)C(O)C2O)[nH]c2cc(F)ccc12)C(C)OC (centres unmarked) [EE] | < 100 nM
CNC(C)C(=O)NC(C(=O)N1CC(O)CC1Cc1c(-c2c(CC3CC(O)CN3C(=O)C(NC(=O)C(C)NC)C(C)OC)c3ccc(F)cc3n2C2OC(C)C(O)C(O)C2O)[nH]c2cc(F)ccc12)C(C)OC (centres unmarked) [FF] | < 100 nM
CN[C@@H](C)C(=O)N[C@H](C(=O)N1CCCC1Cc1c(-c2c(C[C@@H]3CCCN3C(=O)[C@@H](NC(=O)[C@H](C)NC)C(C)C)c3ccc(F)cc3n2C2O[C@@H](C)[C@@H](O)[C@@H](O)[C@@H]2O)[nH]c2cc(F)ccc12)C(C)C (some centres unmarked) [V] | < 100 nM
CC(C)C(NC(=O)CN)C(=O)N1CCCC1Cc1c(-c2c(CC3CCCN3C(=O)C(NC(=O)CN)C(C)C)c3ccc(F)cc3n2C2OC(C)C(O)C(O)C2O)[nH]c2cc(F)ccc12 (centres unmarked) [W] | 100 to 1000 nM
CN[C@@H](C)C(=O)N[C@H](C(=O)N1CCC[C@H]1Cc1c(-c2c(C[C@@H]3CCCN3C(=O)[C@@H](NC(=O)[C@H](C)NC)C(C)C)c3ccc(F)cc3n2C2OC[C@@H](O)[C@H](O)[C@H]2O)[nH]c2cc(F)ccc12)C(C)C (some centres unmarked) [Y] | < 100 nM

same assay, conditions: Table 3, monomeric IAP antagonists (piperidine-substituted)

Compound | Kd
CN[C@@H](C)C(=O)N[C@H](C(=O)N1CCCC1Cc1c(-c2ccc(F)cc2)n(C2CCNCC2)c2cc(F)ccc12)C(C)(C)C (some centres unmarked) [HH] | < 100 nM
CN[C@@H](C)C(=O)N[C@H](C(=O)N1CCC[C@H]1Cc1c(-c2ccc(F)cc2)n(C2CCNCC2)c2cc(F)ccc12)[C@@H](C)OC [II] | < 100 nM
CC[C@H](NC)C(=O)N[C@H](C(=O)N1CCC[C@H]1Cc1c(-c2ccc(F)cc2)n(C2CCNCC2)c2cc(F)ccc12)[C@@H](C)OC [JJ] | < 100 nM
CN[C@H](C(=O)N[C@H](C(=O)N1CCC[C@H]1Cc1c(-c2ccc(F)cc2)n(C2CCNCC2)c2cc(F)ccc12)[C@@H](C)OC)C1CC1 [KK] | 100 to 1000 nM
CN[C@@H](C)C(=O)N[C@H](C(=O)N1C[C@@H](O)C[C@H]1Cc1c(-c2ccc(F)cc2)n(C2CCNCC2)c2cc(F)ccc12)C(C)(C)C [LL] | < 100 nM
CCN[C@@H](C)C(=O)N[C@H](C(=O)N1C[C@@H](O)C[C@H]1Cc1c(-c2ccc(F)cc2)n(C2CCNCC2)c2cc(F)ccc12)C(C)(C)C [MM] | 100 to 1000 nM
CN[C@@H](CO)C(=O)N[C@H](C(=O)N1C[C@@H](O)C[C@H]1Cc1c(-c2ccc(F)cc2)n(C2CCNCC2)c2cc(F)ccc12)C(C)(C)C [NN] | 100 to 1000 nM
CN[C@H](C(=O)N[C@H](C(=O)N1C[C@@H](O)C[C@H]1Cc1c(-c2ccc(F)cc2)n(C2CCNCC2)c2cc(F)ccc12)C(C)(C)C)C1CC1 [OO] | > 10000 nM
CN[C@@H](C)C(=O)N[C@H](C(=O)N1C[C@@H](O)C[C@H]1Cc1c(-c2ccc(F)cc2)n(C2CCNCC2)c2cc(F)ccc12)[C@@H](C)OC [PP] | < 100 nM
CCN[C@@H](C)C(=O)N[C@H](C(=O)N1C[C@@H](O)C[C@H]1Cc1c(-c2ccc(F)cc2)n(C2CCNCC2)c2cc(F)ccc12)[C@@H](C)OC [QQ] | < 100 nM
CC[C@H](NC)C(=O)N[C@H](C(=O)N1C[C@@H](O)C[C@H]1Cc1c(-c2ccc(F)cc2)n(C2CCNCC2)c2cc(F)ccc12)[C@@H](C)OC [RR] | < 100 nM
CN[C@H](C(=O)N[C@H](C(=O)N1C[C@@H](O)C[C@H]1Cc1c(-c2ccc(F)cc2)n(C2CCNCC2)c2cc(F)ccc12)[C@@H](C)OC)C1CC1 [SS] | 100 to 1000 nM
